The source of these data is US20100204470A1, “METHOD FOR SALT PREPARATION” (Sandoz AG, priority 2006, published 2010).

Counter-ions that a name gives are not always drawn.

Data set [1] is described as follows: Storage in a dessicator at a humidity level of 33% (hygroscopicity, conversion to hydrous form). Type of data set: physicochemical. The text has this:
The present invention also relates to a novel anhydrous hydrochloride salt of Moxifloxacin, herein called form IV. […] More particular, the invention relates to form IV characterized by an X-ray powder diffraction pattern with peaks at about 10.0, 13.2, 15.3, 17.2 and 24.4 degrees 2 theta. The invention also relates to form IV characterized by infrared absorption bands at about 2704, 1720, 1434, 1312 and 1273 cm^−1.
The new anhydrous form IV may preferably be prepared by desolvating Moxifloxacin hydrochloride methylene dichloride solvate by drying in vacuum at about 100° C. […] The invention also relates to pharmaceutical compositions comprising form IV.

Data set [2] can be described thus: General solubility / stability of the crystalline salt. Type of data set: physicochemical. The note with it: qualitative statement.
For data set [3] the following is noted: anhydrous vs monohydrate hydrochloride; disclosed in WO 95/07902; cited from earlier work.
The conditions of data set [4]: compared with monohydrate salt form; disclosed in WO 95/07902; cited from earlier work.
Data set [5] in a line: Stability of solvate under air drying conditions (desolvation).
Setting [6] is: dessicator, humidity level 33%, 48 hours.

Regarding `COc1c(N2C[C@@H]3CCCN[C@@H]3C2)c(F)cc2c(=O)c(C(=O)O)cn(C3CC3)c12.Cl` [Moxifloxacine Hydrochloride Anhydrous Form IV], the “moisture content after humidity storage” value in data set [1] (after 48 hours at humidity level 33%) was determined as 0.6%. For the same molecule, in data set [1] (compared with anhydrous form II (US 5849 752, Bayer) and anhydrous form B (WO 2005/054240, Chemi Spa)), the “hygroscopicity relative to other anhydrous forms” value is “lower hygroscopicity”. In data set [1] (setting [6]), the “XRPD pattern after humidity storage” value is listed as “no alteration” and the “conversion to a hydrous form” value was “does not convert to a hydrous form”. The “moisture content before humidity storage” value in data set [1] (initial value) came out at 0.5%.
As for `COc1c(N2C[C@@H]3CCCN[C@@H]3C2)c(F)cc2c(=O)c(C(=O)O)cn(C3CC3)c12` [Moxifloxacine hydrochloride], the solubility and/or stability result in data set [2] is on record as “good solubility and/or stability”.
As to `COc1c(C)c2c(c(O)c1C/C=C(\C)CCC(=O)OCCN1CCOCC1)C(=O)OC2` [mycophenolate mofetil hydrochloride], the “increase in solubility over the monohydrate salt form” value in data set [3] was “two-fold”. Moreover, the stability characteristics entry in data set [4] is on record as “possessing the stability characteristics of the monohydrate salt form”.
On to “Moxifloxacine Hydrochloride Methylene Dichloride Solvate”, for which the “stability / desolvation under air drying conditions” value in data set [5] is “stable and does not desolvate”. The “hygroscopicity (water uptake)” value in data set [1] (1 day at 33% relative humidity) is given as “not hygroscopic”.
Consider “Raloxifene Hydrochloride THF hemisolvate”, for which the “stability / desolvation under air drying conditions” value in data set [5] was “stable and does not desolvate”.
